According to patent US8512707B2, “Methods of treating drug-resistant cancers” (Seattle Genetics, Inc., priority 2006, dated 2013):
Like-named read-outs stand apart in the source and are kept apart here. Square brackets hold non-standard residues; d marks the D form. Peptide text beside a SMILES is read from it. * marks the point of attachment. Dolaproine = CO[C@@H]([C@@H]1CCCN1)[C@@H](C)C(=O)O; Dil = CC[C@H](C)[C@H](NC)[C@@H](CC(=O)O)OC; X1 = C[C@@H](N*)[C@@H](O)c1ccccc1; NMeV = CN[C@H](C(=O)O)C(C)C

Tests used:
Karpas 299 cells = experiment: In vitro growth inhibition (Alamar Blue); type: cell-based, human; settings: 96 h
Protocol: (§1) Log phase cultures of cells were collected and cells plated at seeding densities ranging from 500-10,000 cells/well according to pre-determined conditions. After incubating 24 h to allow surface protein reconstitution, serial dilutions of test molecules were added and cultures incubated a further 4-6 days depending on cell line. Assessment of cellular growth and data reduction to generate IC50 values was done using Alamar Blue (Biosource International, Camarillo, Calif.) dye reduction assay as previously described, according to previously published methods (Doronina et al., supra; Hamblett et al., supra; Law et al., 2004, Clin. Cancer Res. 10:7842-51; Francisco et al., supra). Briefly, a 40% solution (wt/vol) of Alamar Blue was freshly prepared in complete media just before cultures were added. Ninety-two hours after drug exposure, Alamar Blue solution was added to cells to constitute 10% culture volume. Cells were incubated for 4 h, and dye reduction was measured on a Fusion HT fluorescent plate reader (Packard Instruments, Meriden, Conn.).

[1] = test system: 786-O renal cell carcinoma; experiment: In vitro growth inhibition (Alamar Blue); type: cell-based; settings: Table 8, free auristatins, 96 h
Protocol: as §1

[2] = test system: Caki-1 renal cell carcinoma; experiment: In vitro growth inhibition (Alamar Blue); type: cell-based; settings: Table 8, free auristatins, 96 h
Protocol: as §1

[3] = test system: H3396 breast carcinoma cells; experiment: In vitro growth inhibition (Alamar Blue); type: cell-based; settings: Table 8, free auristatins, 96 h
Protocol: as §1

A2780 and A2780adr = experiment: Drug sensitivity of parental and drug resistant subline pair (resazurin); type: cell-based, human; settings: IC50 of resistant line divided by IC50 of parental line, 96 hr
Protocol: (§2) The following parental and drug resistant cell lines were used to determine their MMAF-drug sensitivity.
(§3) The activity of various drugs against parental and drug resistant subline pairs was tested. The pairs of cell lines tested were A2780 and A2780adr; MES-SA and MES-SA/Dx5; NCI-H69 and NCI-H69/LX-4; and HL60 and HL60/RV. Cell lines were plated and incubated 24 hr. Culture medium containing serial dilutions of the drugs doxorubicin, vincristine, cisplatin, dolastatin 10 or MMAF were then added. The cultures were incubated to 96 hr and labeled with resazurin. Sensitivity to each drug was measured by determining the IC50 of the parent and drug resistant subline pair. The drug resistance (as “fold resistance”) was determined from the IC50 value of the resistant cell line divided by the IC50 value of the parental line. Mean fold resistance is the average across the cell line panel.

NCI-H69 and NCI-H69/LX-4 = experiment: as above; type: cell-based, human; settings: IC50 of resistant line divided by IC50 of parental line, 96 hr
Protocol: as §2, §3

HL60 and HL60/RV = experiment: as above; type: cell-based; settings: IC50 of resistant line divided by IC50 of parental line, 96 hr
Protocol: as §2, §3

MES-SA and MES-SA/Dx5 = experiment: as above; type: cell-based; settings: IC50 of resistant line divided by IC50 of parental line, 96 hr
Protocol: as §2, §3

[4] = test system: parental and drug resistant cell line pairs; experiment: Drug sensitivity across the panel of parental/drug resistant cell line pairs; type: cell-based; settings: for Mean Fold Resistance: average across the cell line panel; for difference in sensitivity of parent and resistant line: statement over all cell line pairs of Table 3
Protocol: as §2, §3

[5] = test system: HCT-15 (colon carcinoma) cells; experiment: Alteration of drug potency by verapamil, free drugs; type: cell-based; settings: for Fold Difference: IC50 drug alone divided by IC50 verapamil plus drug, HCT-15; for IC50: HCT-15, drug alone, 96 hr, resazurin
Protocol: Verapamil is a known inhibitor of the P-gp transporter. The following study was conducted to measure the effect of verapamil on P-gp-mediated transport of doxorubicin, vincristine, cisplatin and MMAF.
HCT-15 (colon carcinoma) cells were plated and allowed to adhere to the plates. Neat culture medium or medium containing 40 μM verapamil was added, and the cultures were incubated for 4 hr. Serial dilutions of doxorubicin, vincristine, cisplatin or MMAF were then added. The cultures were incubated to 96 hr and labeled with resazurin. Referring to Table 4, the values shown are the IC50 determined from 4-parameter curve fits. The fold difference was determined by dividing the IC50 of the drug alone treatment by that of the verapamil plus drug treated cultures.

NCI/ADR-RES cells = experiment: Cell killing by free drugs or MMAF-ADCs with or without verapamil; type: cell-based; settings: for Fold Difference: IC50 drug alone divided by IC50 drug plus verapamil; for IC50: Homo sapiens
Protocol: NCI/ADR-RES cells were plated and allowed to adhere. Neat culture medium or medium containing 40 μM verapamil was added, and the cultures were incubated for 4 hr. Serial dilutions of the free drugs (doxorubicin, cisplatin or MMAF) or MMAF ADCs (cBR96-vcMMAF or mOKT9-vcMMAF) were then added. The cultures were incubated to 96 hr and labeled with resazurin. Referring to Table 7, the values are the IC50 in […] (doxorubicin, cisplatin, MMAF) or […] (cBR96-vcMMAF, mOKT9-vcMMAF) determined from 4-parameter curve fits. The fold difference is determined by dividing the IC50 from the drug alone treatment by that of the drug treated plus verapamil cultures.

DEL = experiment: In vitro growth inhibition (Alamar Blue); type: cell-based, human; settings: 96 h, ADC concentrations represented by the drug component
Protocol: as §1
(§4) Cells were exposed to the ADCs continuously for 96 h, and the cytotoxic effects, as determined by Alamar Blue conversion, were compared to those of free MMAF.

HDLM-2 = experiment: In vitro growth inhibition (Alamar Blue); type: cell-based, human; settings: 96 h, ADC concentrations represented by the drug component
Protocol: as §1, §4

KMH-2 = experiment: In vitro growth inhibition (Alamar Blue); type: cell-based, human; settings: 96 h, ADC concentrations represented by the drug component
Protocol: as §1, §4

L428 = experiment: In vitro growth inhibition (Alamar Blue); type: cell-based, human; settings: 96 h, ADC concentrations represented by the drug component
Protocol: as §1, §4

SR-786 = experiment: In vitro growth inhibition (Alamar Blue); type: cell-based, human; settings: 96 h, ADC concentrations represented by the drug component
Protocol: as §1, §4

SU-DHL-1 = experiment: In vitro growth inhibition (Alamar Blue); type: cell-based, human; settings: 96 h, ADC concentrations represented by the drug component
Protocol: as §1, §4

SUP-M2 = experiment: In vitro growth inhibition (Alamar Blue); type: cell-based, human; settings: 96 h, ADC concentrations represented by the drug component
Protocol: as §1, §4

HH = experiment: In vitro growth inhibition (Alamar Blue); type: cell-based; settings: 96 h, ADC concentrations represented by the drug component
Protocol: as §1, §4

L540cy = experiment: In vitro growth inhibition (Alamar Blue); type: cell-based; settings: 96 h, ADC concentrations represented by the drug component
Protocol: as §1, §4

RPMI 6666 = experiment: In vitro growth inhibition (Alamar Blue); type: cell-based; settings: 96 h, ADC concentrations represented by the drug component
Protocol: as §1, §4

WSU-NHL = experiment: In vitro growth inhibition (Alamar Blue), CD30 negative line; type: cell-based, human; settings: 96 h, ADC concentrations represented by the drug component
Protocol: as §1, §4

[6] = test system: panel of CD30 positive and negative hematologic cell lines; experiment: In vitro growth inhibition, panel of hematologic cell lines; type: cell-based; settings: mean over the lines of Table 9; ADC concentrations represented by the drug component; read-out: IC50 Mean (all lines)
Protocol: as §1, §4

H69 and H69/LX4 = experiment: Cytotoxic effects on H69 and its P-glycoprotein overexpressing counterpart; type: cell-based, human; settings: free drugs, 6 days, Alamar Blue (FIG. 2A, 2B)
Protocol: as §1

[7] = Maximum tolerated dose of free drugs in mice; type: in vivo; settings: free drug
Text: The synthesis of MMAE proceeded through a solution-phase route involving the coupling of the amino-protected N-terminal trimer to the C-terminal dimer. Due to the convergent nature of the process, it was possible to produce a large number of auristatins with varied solubilities, potencies and pharmacokinetic properties. […] MMAF-OMe is a prodrug of MMAF (FIG. 1), with the potential of having facilitated intracellular uptake due to the presence of a neutral C-terminus. In addition, intracellular ester hydrolysis of MMAF-OMe should rapidly generate MMAF, a C-terminally charged molecule expected to have impaired membrane translocation capabilities. […] In addition, the maximum tolerated dose in mice of MMAF (>16 mg/kg) was much higher than MMAE (1 mg/kg). Thus, MMAF was of great interest for targeted delivery, since the free drug had attenuated potency, lower toxicity, and much higher aqueous solubility compared to MMAE. Facilitated intracellular transport was expected to greatly enhance its activity.

Aqueous solubility = type: physicochemical
[8] = test system: HCT-15 (colon carcinoma) cells; experiment: Alteration of drug potency by verapamil, free drugs; type: cell-based; settings: read-out: IC50 +10 μM Verapamil, HCT-15, verapamil 4 hr before drug, 96 hr, resazurin
hematologic cell lines = settings: previously displayed (Doronina et al.; Law et al.); cited from earlier work

| Compound | IC50 (Karpas 299 cells; Table 8, free auristatins) | IC50 [1] | IC50 [2] | IC50 [3] | Fold Resistance A2780adr / A2780 (A2780 and A2780adr) | Fold Resistance NCI-H69/LX4 / NCI-H69 (NCI-H69 and NCI-H69/LX-4) | Fold Resistance HL60/RV / HL60 (HL60 and HL60/RV) | Fold Resistance MES-SA/Dx5 / MES-SA (MES-SA and MES-SA/Dx5) | Mean Fold Resistance [4] | Fold Difference [5] | Fold Difference (NCI/ADR-RES cells) | further results |
| --- | --- | --- | --- | --- | --- | --- | --- | --- | --- | --- | --- | --- |
| CC[C@H](C)[C@@H]([C@@H](CC(=O)N1CCC[C@H]1[C@H](OC)[C@@H](C)C(=O)N[C@@H](Cc1ccccc1)C(=O)OC)OC)N(C)C(=O)[C@@H](NC(=O)[C@@H](NC)C(C)C)C(C)C [MMAF-OMe] (H-[NMeV]V[Dil][Dolaproine]F-OMe) | < 0.001 nM | 0.01 nM | < 0.001 nM | < 0.001 nM |  |  |  |  |  |  |  |  |
| N.N.[Cl][Pt][Cl] [Cisplatin] |  |  |  |  | 2.7 fold | 4.7 fold | 13 fold | 1.6 fold | 5.5 fold | 1.04 fold | 0.88 fold | difference in sensitivity of parent and resistant line [4]: thirteen |
| CC[C@H](C)[C@@H]([C@@H](CC(=O)N1CCC[C@H]1[C@H](OC)[C@@H](C)C(=O)N[C@@H](Cc1ccccc1)c1nccs1)OC)N(C)C(=O)[C@@H](NC(=O)[C@H](C(C)C)N(C)C)C(C)C [Dolastatin 10] |  |  |  |  | 500 fold |  |  | 8275 fold | >500 fold |  |  |  |
| CC[C@H](C)[C@@H]([C@@H](CC(=O)N1CCC[C@H]1[C@H](OC)[C@@H](C)C(=O)N[C@@H](Cc1ccccc1)C(=O)O)OC)N(C)C(=O)[C@@H](NC(=O)[C@@H](NC)C(C)C)C(C)C [MMAF, N-methylvaline-valine-dolaisoleuine-dolaproline-phenylalanine] (H-[NMeV]V[Dil][Dolaproine]F-OH) | 119 nM | 257 nM | 200 nM | 105 nM | 7.5 fold | 4 fold | 6 fold | 3 fold | 5 fold | 5.7 fold | 6.4 fold | difference in sensitivity of parent and resistant line [4]: thirteen; IC50 [5]: 1000 nM; IC50 (Karpas 299 cells; ADC concentrations represented by the drug component): 119 nM; IC50 (DEL): 69 nM; IC50 (HDLM-2): 66 nM; IC50 (KMH-2): 45.4 nM; IC50 (L428): 68 nM; IC50 (SR-786): 38.1 nM; IC50 (SU-DHL-1): 34.7 nM; IC50 (SUP-M2): 79.7 nM; IC50 (HH): 30.7 nM; IC50 (L540cy): 70.4 nM; IC50 (RPMI 6666): 164 nM; IC50 (WSU-NHL): 60.3 nM; IC50 [6]: 70.4 nM; fold less sensitive H69/LX-4 compared to the parental cell (H69 and H69/LX4): 3 fold; maximum tolerated dose in mice [7]: > 16 mg/kg; aqueous solubility compared to MMAE (Aqueous solubility): much higher; IC50 [8]: 174 nM |
| CC[C@]1(O)C[C@H]2CN(CCc3c([nH]c4ccccc34)[C@@](C(=O)OC)(c3cc4c(cc3OC)N(C=O)[C@H]3[C@@](O)(C(=O)OC)[C@H](OC(C)=O)[C@]5(CC)C=CCN6CC[C@]43[C@@H]65)C2)C1 [Vincristine] |  |  |  |  | 2000 fold | 56888 fold | 258 fold | 284 fold | >260 fold | >10,000 fold |  | IC50 ([5]; Homo sapiens): 70 nM; IC50 ([8]; Homo sapiens): < 0.001 nM |
| COc1cccc2c1C(=O)c1c(O)c3c(c(O)c1C2=O)C[C@@](O)(C(=O)CO)C[C@@H]3O[C@H]1C[C@H](N)[C@H](O)[C@H](C)O1 [Doxorubicin] |  |  |  |  | 137 fold | 103 fold | 24 fold | 83 fold | 88 fold | 5.4 fold | 17.9 fold | IC50 ([5]; Homo sapiens): 335 nM; IC50 (NCI/ADR-RES cells; 96 h, read-out: IC50 Drug or ADC Only): 10000 nM; IC50 (NCI/ADR-RES cells; read-out: IC50 (Drug or ADC) + 10 μM Verapamil): 560 nM; fold less sensitive H69/LX-4 compared to the parental cell (H69 and H69/LX4): approximately 100 fold; IC50 ([8]; Homo sapiens): 62 nM |
| CC[C@H](C)[C@@H]([C@@H](CC(=O)N1CCC[C@H]1[C@H](OC)[C@@H](C)C(=O)N[C@H](C)[C@@H](O)c1ccccc1)OC)N(C)C(=O)[C@@H](NC(=O)[C@@H](NC)C(C)C)C(C)C [MMAE, reference compound] (H-[NMeV]V[Dil][Dolaproine]-X1) | 0.5 nM | 2 nM | 0.7 nM | 0.1 nM |  |  |  |  |  |  |  | maximum tolerated dose in mice [7]: 1 mg/kg; IC50 (hematologic cell lines): 1 to 5 nM |
